Patent publication US20240092835A1, “NOVEL PEPTIDES CAPABLE OF ALTERING NK CELL ACTIVITY” (Massachusetts Institute of Technology, priority 2022, published 2024)

Key:
Format in all cases: cell-based, human
NKG2A−/NKG2C− NK cells = assay: NK cell activation markers in control NKG2A-/NKG2C- NK cells incubated with peptide and K562 expressing HLA-E
Description: (§1) A human immortalized myelogenous leukemia cell line (K562), which expresses HLA-E was incubated with novel peptides (Table 1) derived from the human proteome or human cytomegalovirus proteome. […] Controls assessments were also performed using NKG2A−/NKG2C− cells (Tables 10-13). Inhibition was indicated by a decrease in percent cells positive for cell surface markers, while activation was indicated by an increase in percent cells positive for cell surface markers.

NKG2A−/NKG2C+ NK cells = assay: NK cell activation markers in NKG2A-/NKG2C+ NK cells incubated with peptide and K562 expressing HLA-E (activation); conditions: NKG2A-/NKG2C+ NK cells, K562/HLA-E
Description: as §1

NKG2A+/NKG2C− NK cells = assay: NK cell activation markers in NKG2A+/NKG2C- NK cells incubated with peptide and K562 expressing HLA-E (inhibition); conditions: NKG2A+/NKG2C- NK cells, K562/HLA-E
Description: as §1

## VMAPQSLLL [VMAPQSLLL (PQS), negative control peptide, reference compound]
NKG2A−/NKG2C− NK cells; Trial 1
  percentage CCL3+ NK cells: 35.1%
  percentage CD107+ NK cells: 24.1%
  percentage TNF+ NK cells: 3.46%
  percentage of IFNG+ NK cells: 14%
NKG2A−/NKG2C− NK cells; Trial 2
  percentage CCL3+ NK cells: 57.7%
  percentage CD107+ NK cells: 37.9%
  percentage TNF+ NK cells: 9.07%
  percentage of IFNG+ NK cells: 27.9%
NKG2A−/NKG2C− NK cells; Trial 3
  percentage CCL3+ NK cells: 59.4%
  percentage CD107+ NK cells: 53%
  percentage TNF+ NK cells: 22.6%
  percentage of IFNG+ NK cells: 48.3%
NKG2A−/NKG2C− NK cells; Trial 4
  percentage CCL3+ NK cells: 35%
  percentage CD107+ NK cells: 28%
  percentage TNF+ NK cells: 8.23%
  percentage of IFNG+ NK cells: 19%
NKG2A−/NKG2C− NK cells; Trial 5
  percentage CCL3+ NK cells: 34%
  percentage CD107+ NK cells: 24.4%
  percentage TNF+ NK cells: 8.67%
  percentage of IFNG+ NK cells: 18.6%
NKG2A−/NKG2C− NK cells; Trial 6
  percentage CCL3+ NK cells: 22.4%
  percentage CD107+ NK cells: 19.5%
  percentage TNF+ NK cells: 4.08%
  percentage of IFNG+ NK cells: 10%
NKG2A−/NKG2C+ NK cells; Trial 1
  percentage of CCL3+ NK cells: 47%
  percentage of CD107+ NK cells: 25.2%
  percentage of IFNG+ NK cells: 10.6%
  percentage of TNF+ NK cells: 4.96%
NKG2A−/NKG2C+ NK cells; Trial 2
  percentage of CCL3+ NK cells: 55.3%
  percentage of CD107+ NK cells: 32.8%
  percentage of IFNG+ NK cells: 12.7%
  percentage of TNF+ NK cells: 9.31%
NKG2A−/NKG2C+ NK cells; Trial 3
  percentage of CCL3+ NK cells: 69.4%
  percentage of CD107+ NK cells: 58.6%
  percentage of IFNG+ NK cells: 40.7%
  percentage of TNF+ NK cells: 31.2%
NKG2A−/NKG2C+ NK cells; Trial 4
  percentage of CCL3+ NK cells: 58.6%
  percentage of CD107+ NK cells: 53.6%
  percentage of IFNG+ NK cells: 35.6%
  percentage of TNF+ NK cells: 25.7%
NKG2A−/NKG2C+ NK cells; Trial 5
  percentage of CCL3+ NK cells: 55.4%
  percentage of CD107+ NK cells: 43%
  percentage of IFNG+ NK cells: 19.9%
  percentage of TNF+ NK cells: 14.7%
NKG2A−/NKG2C+ NK cells; Trial 6
  percentage of CCL3+ NK cells: 32.7%
  percentage of CD107+ NK cells: 22.3%
  percentage of IFNG+ NK cells: 10.3%
  percentage of TNF+ NK cells: 5.08%
NKG2A+/NKG2C− NK cells; Trial 1
  percentage of CCL3+ NK cells: 49.8%
  percentage of CD107a+ NK cells: 29.1%
  percentage of IFNG+ NK cells: 10.1%
  percentage of TNF+ NK cells: 2.95%
NKG2A+/NKG2C− NK cells; Trial 2
  percentage of CCL3+ NK cells: 70.6%
  percentage of CD107a+ NK cells: 47.4%
  percentage of IFNG+ NK cells: 27.3%
  percentage of TNF+ NK cells: 13.3%
NKG2A+/NKG2C− NK cells; Trial 3
  percentage of CCL3+ NK cells: 58.2%
  percentage of CD107a+ NK cells: 46.5%
  percentage of IFNG+ NK cells: 35.1%
  percentage of TNF+ NK cells: 18.8%
NKG2A+/NKG2C− NK cells; Trial 4
  percentage of CCL3+ NK cells: 50.7%
  percentage of CD107a+ NK cells: 40.7%
  percentage of IFNG+ NK cells: 23.1%
  percentage of TNF+ NK cells: 11.6%
NKG2A+/NKG2C− NK cells; Trial 5
  percentage of CCL3+ NK cells: 47.7%
  percentage of CD107a+ NK cells: 30.1%
  percentage of IFNG+ NK cells: 14.1%
  percentage of TNF+ NK cells: 6.1%
NKG2A+/NKG2C− NK cells; Trial 6
  percentage of CCL3+ NK cells: 31.3%
  percentage of CD107a+ NK cells: 24.4%
  percentage of IFNG+ NK cells: 8.37%
  percentage of TNF+ NK cells: 4.14%
